Source: patent US20140357688A1, “METHOD FOR INHIBITING EZH2 EXPRESSION IN BREAST CANCER CELLS” (Yung Shin Pharm. Ind. Co., Ltd., priority 2013, published 2014)

Assays:
Type in all cases: cell-based, human
MDA-MB-468 cells [1] = test: Morphological analysis of apoptosis by fluorescent staining (FDA/PI); conditions: 3 μM YC-1, after 6 h-treatment
Method: (§1) (A) Cells were treated with indicated concentration of YC-1 for 6, 24, and 48 h. Cell viability was determined by MTT method. (B) MDA-MB-468 cells were treated with 3 μM YC-1 for 0, 6, and 12 h, and then stained with fluorescence diacetate (FDA) and propidium iodide (PI). Cell morphology was assessed by fluorescence microscopy with magnification ×20 (upper 3 rows) or ×40 (lowest row). (C) MDA-MB-468 cells were treated with 3 μM YC-1 for 24 h, cells were lysed and subjected to western blot analysis described in Materials and Methods. β-actin is a loading control. Blots were representative of results from three independent experiments. (D) Cells were treated with vehicle (DMSO, as control) or 3 μM YC-1 for 6 h. The cell cycles were analyzed by flow cytometry. (E) Cells were treated with indicated concentration of YC-1 and then performed with clonogenic assay.
Vital and apoptotic cells were observed under staining with fluorescein diacetate (2 mg/ml) and propidium iodide (4 mg/ml) for 10 min. Cells were visualized and recorded on a LeicaDC300 microscope with digital camera.

EGFR = test: Western blot of EGFR phosphorylation and expression
Method: (§2) Cells were incubated with 3 μM YC-1 for indicated time. Cells were harvested and subjected to western blot analysis for the detection of protein expression. Cells were lysed in PBS containing proteinase inhibitor and phosphatase inhibitors and sonication. Protein concentration was measured using the Bio-Rad protein assay kit (Bio-Rad Laboratories, Hercules, Calif., USA). Lysate protein was separated by electrophoresis of SDS-PAGE and transferred to Immobilon P membrane (EMD Millipore). The membranes were incubated with appropriate primary antibodies and horseradish peroxidase-conjugated secondary antibodies (EMD Millipore). The signaling was visualized using Chemiluminescence substrate kit (EMD Millipore) and collected by the Luminesence image analyzer, LAS4000 (Fuji Photo Film Co., Tokyo, Japan). The band intensities were analyzed and quantified by the Multi Gauge software (Fuji Photo Film).

Bmi1 = test: Western blot of PRC1 components in MDA-MB-468 cells
Method: (§3) (A)(B) Cells were treated with indicated concentration of YC-1 for 24 h (A) or 3 μM of YC-1 for indicated time (B). Cells were harvested and performed with western blotting analysis. […] The levels of protein expression were quantitated and shown under blots. (C) Cells were transfected with EZH2 shRNA for 0, 1, 2, 3, and 4 days and collected for determination of cell viability (left) and protein expression (right). (D)(E) After 4 days of EZH2 knockdown, cells were incubated with 3 μM YC-1 for 4 h and detected cell viability (D) and protein contents (E). (F) Tumor specimens were isolated and protein was extracted for western blot analysis.
as §2, with “Cells” for “Cells were incubated with 3 μM YC-1 for indicated time. Cells were harvested and subjected to western blot analysis for the detection of protein expression. Cells”

Ring1B = test: as above
Method: as §3
as §2, with “Cells” for “Cells were incubated with 3 μM YC-1 for indicated time. Cells were harvested and subjected to western blot analysis for the detection of protein expression. Cells”

Ring1A = test: as above
Method: as §3
as §2, with “Cells” for “Cells were incubated with 3 μM YC-1 for indicated time. Cells were harvested and subjected to western blot analysis for the detection of protein expression. Cells”

MDA-MB-468 cells [2] = test: Colony formation (clonogenic) assay
Method: as §1
After exposure to YC-1, cells were collected and washed extensively with PBS. Five hundred cells per well was seeded onto 6-well plates and maintained in a 37° C., 5% CO2 incubator. Three weeks later, colonies were fixed with formaldehyde (3.7%, v/v) and stained with crystal violet (0.5%, w/v), then counted.

EZH2 = EZH2 ubiquitination assay; conditions: 3 μM YC-1
Method: (A) Cells were pretreated with cyclohexamide (30 μM) for 1 h and followed by induction with vehicle (DMSO) or YC-1 (3 μM) for indicated time. Cells were harvested for detection of protein expression. (B)(C) Cells were incubated with 3 μM YC-1 for 6 h in the presence of vehicle, 3 μM MG-132 or 30 μM NH4Cl. Cells were harvested for detection of protein expression (B) or cell viability assay (C). The levels of protein expression were quantitated and shown under blots. (D) After treatment of 3 μM YC-1 for indicated time, cells were harvested and lysed for immunoprecipitation and western blot analysis described in Materials and Methods.
Cells were lysed with MLB buffer (25 mM HEPES, pH 7.5, 150 mM NaCl, 1% Igepal CA-630, 10 mM MgCl2, 1 mM EDTA, 2% glycerol, 1 mM Na3VO4, 1 mM NaF, 1 mM PMSF, 10 μg/ml of leupeptin, aprotinin, and pepstatin A). After sonication, cell lysates were centrifugated at 12,000×g for 10 min at 4° C. Supernatants were incubated with anti-EZH2 antibody (BD Biosciences) and protein A Sepharose beads (GE Health Care) overnight at 4° C. After washing with MLB buffer, precipitated proteins were boiled in 1× Laemmli sample buffer and then separated with SDS-PAGE. The ubiquitination levels of EZH2 were recognized by using anti-Ubiquitn monoclonal antibody.

EZH2 mRNA = test: Quantitative real-time RT-PCR of EZH2 mRNA; conditions: 3 μM YC-1, 3 or 6 h; less inhibition than protein levels
Method: Cells were treated with 3 μM YC-1 for 3 or 6 h. Cells were collected for the detection of EZH2 mRNA expression with quantitative real-time RT-PCR described in Materials and Methods.
Total RNA was isolated from MDA-MB-468 cells treated with YC-1 and extracted using TRIzol® Reagent (Invitrogen). cDNA strain was reverse transcribed by oligo dT(15) using M-MLV reverse transcriptase (Invitrogen) according to the manufacturer's instructions. Quantitative real-time RT-PCR analysis was performed by a LightCycler® 480 II RTPCR system (Roche Applied Sciences, Manheim, Germany) using Fast Start DNA Master Plus SYBR Green I kit (Roche Applied Sciences). PCR primers were as follows: human EZH2 (NM_004456.4) 5′-[…]-3′ (Forward), 5′-[…]-3′ (Reverse); human GAPDH (NM_002046.3) 5′-[…]-3′ (Forward); 5′-[…]-3′ (Reverse). The expression level of EZH2 mRNA was normalized against the level of GAPDH mRNA in the same sample.

RbAp48 = test: Western blot of PRC2 protein expression in MDA-MB-468 cells; conditions: 24 h
Method: as §3
as §2, with “Cells” for “Cells were incubated with 3 μM YC-1 for indicated time. Cells were harvested and subjected to western blot analysis for the detection of protein expression. Cells”

EED = test: as above; conditions: 24 h
Method: as §3
as §2, with “Cells” for “Cells were incubated with 3 μM YC-1 for indicated time. Cells were harvested and subjected to western blot analysis for the detection of protein expression. Cells”

SUZ12 = test: as above; conditions: 24 h
Method: as §3
as §2, with “Cells” for “Cells were incubated with 3 μM YC-1 for indicated time. Cells were harvested and subjected to western blot analysis for the detection of protein expression. Cells”

SMILES: OCc1ccc(-c2nn(Cc3ccccc3)c3ccccc23)o1 [YC-1, 3-(5′-hydroxymethyl-2′-furyl)-1-benzyl indazole]
- morphological changes (apoptosis) (MDA-MB-468 cells [1]): obviously morphological changes with apoptotic characteristics
- EGFR phosphorylation (EGFR; 3 μM YC-1): rapidly induced EGFR phosphorylation
- EGFR protein expression (EGFR; 3 μM YC-1, after 6 h treatment): significant decrease
- Bmi1 protein (Bmi1): decreased
- Ring1B protein (Ring1B): decreased
- Ring1A protein (Ring1A): decreased
- clonogenic activity (MDA-MB-468 cells [2]): potent ability in attenuation of tumor formation
- ubiquitination of EZH2 (EZH2): time-dependently promoted the ubiquitination of EZH2
- mRNA expression of EZH2 (EZH2 mRNA): inhibitory effect
- RbAp48 protein expression (RbAp48): effectively concentration-dependent suppression
- EED protein expression (EED): no effect
- SUZ12 protein expression (SUZ12): effectively concentration-dependent suppression
